Measured values as given in ChEMBL document CHEMBL1255447, “Efflux pumps, OprD porin, AmpC beta-lactamase, and multiresistance in Pseudomonas aeruginosa isolates from cystic fibrosis patients” (2010).
≈ marks a conversion by molar mass, not a printed value.

What was measured:
Pseudomonas aeruginosa [1] = assay: Antimicrobial activity against Pseudomonas aeruginosa isolate 17145c from fibrosis patient by Etest; assay type: functional
Pseudomonas aeruginosa [2] = assay: Antimicrobial activity against Pseudomonas aeruginosa isolate 12142c from fibrosis patient by Etest; assay type: functional
Pseudomonas aeruginosa [3] = assay: Antimicrobial activity against Pseudomonas aeruginosa isolate 1693c from fibrosis patient by Etest; assay type: functional
Pseudomonas aeruginosa [4] = assay: Antimicrobial activity against Pseudomonas aeruginosa Z799/61 by Etest; assay type: functional
Pseudomonas aeruginosa [5] = assay: Antimicrobial activity against Pseudomonas aeruginosa isolate 14169c from fibrosis patient by Etest; assay type: functional
Pseudomonas aeruginosa [6] = assay: Antimicrobial activity against Pseudomonas aeruginosa R20 Etest; assay type: functional
Pseudomonas aeruginosa [7] = assay: Antimicrobial activity against Pseudomonas aeruginosa isolate 1495c from fibrosis patient by Etest; assay type: functional
Pseudomonas aeruginosa [8] = assay: Antimicrobial activity against Pseudomonas aeruginosa isolate 1712c from fibrosis patient by Etest; assay type: functional
Pseudomonas aeruginosa [9] = assay: Antimicrobial activity against Pseudomonas aeruginosa isolate 1247c from fibrosis patient by Etest; assay type: functional
Pseudomonas aeruginosa [10] = assay: microbe, parasite or virus in culture; settings: 2779-con
Description: Antimicrobial activity against Pseudomonas aeruginosa 2779-con by Etest

Pseudomonas aeruginosa [11] = assay: Antimicrobial activity against Pseudomonas aeruginosa AHP Etest; assay type: functional
Pseudomonas aeruginosa [12] = assay: Antimicrobial activity against Pseudomonas aeruginosa isolate 1248c from fibrosis patient by Etest; assay type: functional
Pseudomonas aeruginosa [13] = assay: Antimicrobial activity against Pseudomonas aeruginosa isolate 1665 from fibrosis patient by Etest; assay type: functional
Pseudomonas aeruginosa [14] = assay: Antimicrobial activity against Pseudomonas aeruginosa isolate 16008 from fibrosis patient by Etest; assay type: functional
Pseudomonas aeruginosa [15] = assay: Antimicrobial activity against Pseudomonas aeruginosa isolate 3149 from fibrosis patient by Etest; assay type: functional
Pseudomonas aeruginosa [16] = assay: Antimicrobial activity against Pseudomonas aeruginosa R70 Etest; assay type: functional
Pseudomonas aeruginosa [17] = assay: microbe, parasite or virus in culture; settings: isolate 13120
Description: Antimicrobial activity against Pseudomonas aeruginosa isolate 13120 from fibrosis patient by Etest

Pseudomonas aeruginosa [18] = assay: Antimicrobial activity against Pseudomonas aeruginosa 1405-con D2 by Etest; assay type: functional
Pseudomonas aeruginosa [19] = assay: Antimicrobial activity against Pseudomonas aeruginosa isolate 13167 from fibrosis patient by Etest; assay type: functional
Pseudomonas aeruginosa [20] = assay: Antimicrobial activity against Pseudomonas aeruginosa isolate 1726 from fibrosis patient by Etest; assay type: functional
Pseudomonas aeruginosa [21] = assay: Antimicrobial activity against Pseudomonas aeruginosa isolate 12102 from fibrosis patient by Etest; assay type: functional
Pseudomonas aeruginosa [22] = assay: Antimicrobial activity against Pseudomonas aeruginosa isolate 1253 from fibrosis patient by Etest; assay type: functional
Pseudomonas aeruginosa [23] = assay: Antimicrobial activity against Pseudomonas aeruginosa isolate 17112 from fibrosis patient by Etest; assay type: functional
Pseudomonas aeruginosa [24] = assay: Antimicrobial activity against Pseudomonas aeruginosa isolate 1240 from fibrosis patient by Etest; assay type: functional
Pseudomonas aeruginosa [25] = assay: Antimicrobial activity against Pseudomonas aeruginosa isolate 1530c from fibrosis patient by Etest; assay type: functional
Pseudomonas aeruginosa [26] = assay: Antimicrobial activity against Pseudomonas aeruginosa isolate 1681c from fibrosis patient by Etest; assay type: functional
Pseudomonas aeruginosa [27] = assay: Antimicrobial activity against Pseudomonas aeruginosa isolate 15107 from fibrosis patient by Etest; assay type: functional
Pseudomonas aeruginosa [28] = assay: Antimicrobial activity against Pseudomonas aeruginosa isolate 1529c from fibrosis patient by Etest; assay type: functional
Pseudomonas aeruginosa [29] = assay: Antimicrobial activity against Pseudomonas aeruginosa isolate 1352c from fibrosis patient by Etest; assay type: functional
Pseudomonas aeruginosa [30] = assay: Antimicrobial activity against Pseudomonas aeruginosa isolate 15110c from fibrosis patient by Etest; assay type: functional
Pseudomonas aeruginosa [31] = assay: Antimicrobial activity against Pseudomonas aeruginosa M1251 by Etest
Pseudomonas aeruginosa [32] = assay: Antimicrobial activity against Pseudomonas aeruginosa isolate 1333c from fibrosis patient by Etest; assay type: functional

Compound | MIC (Pseudomonas aeruginosa [1]) | MIC (Pseudomonas aeruginosa [2]) | MIC (Pseudomonas aeruginosa [3]) | MIC (Pseudomonas aeruginosa [4]) | MIC (Pseudomonas aeruginosa [5]) | MIC (Pseudomonas aeruginosa [6]) | MIC (Pseudomonas aeruginosa [7]) | MIC (Pseudomonas aeruginosa [8]) | MIC (Pseudomonas aeruginosa [9]) | MIC (Pseudomonas aeruginosa [10]) | MIC (Pseudomonas aeruginosa [11]) | MIC (Pseudomonas aeruginosa [12]) | MIC (Pseudomonas aeruginosa [13]) | MIC (Pseudomonas aeruginosa [14]) | MIC (Pseudomonas aeruginosa [15]) | MIC (Pseudomonas aeruginosa [16]) | MIC (Pseudomonas aeruginosa [18]) | MIC (Pseudomonas aeruginosa [19]) | MIC (Pseudomonas aeruginosa [20]) | MIC (Pseudomonas aeruginosa [21]) | further results
O=C(O)c1cn(C2CC2)c2cc(N3CCNCC3)c(F)cc2c1=O [CIPROFLOXACIN] | 4 µg/mL (≈ 12.1 µM) | 4 µg/mL (≈ 12.1 µM) | 1 µg/mL (≈ 3.02 µM) | ≤ 0.12 µg/mL | 1 µg/mL (≈ 3.02 µM) | ≤ 0.12 µg/mL | 4 µg/mL (≈ 12.1 µM) | 4 µg/mL (≈ 12.1 µM) | 4 µg/mL (≈ 12.1 µM) | ≤ 0.12 µg/mL | ≤ 0.12 µg/mL | 4 µg/mL (≈ 12.1 µM) | 4 µg/mL (≈ 12.1 µM) | 4 µg/mL (≈ 12.1 µM) | > 8 µg/mL |  |  |  |  |  | 
C[C@@H](O)[C@H]1C(=O)N2C(C(=O)O)=C(SCCNC=N)C[C@H]12 [IMIPENEM ANHYDROUS] | 32 µg/mL (≈ 107 µM) | 32 µg/mL (≈ 107 µM) | 8 µg/mL (≈ 26.7 µM) | 0.5 µg/mL (≈ 1.67 µM) | 16 µg/mL (≈ 53.4 µM) | 2 µg/mL (≈ 6.68 µM) | > 32 µg/mL | 32 µg/mL (≈ 107 µM) | 16 µg/mL (≈ 53.4 µM) | 2 µg/mL (≈ 6.68 µM) | 0.12 µg/mL (≈ 0.401 µM) | 16 µg/mL (≈ 53.4 µM) | 64 µg/mL (≈ 214 µM) | 64 µg/mL (≈ 214 µM) | 32 µg/mL (≈ 107 µM) | 16 µg/mL (≈ 53.4 µM) | 16 µg/mL (≈ 53.4 µM) | 4 µg/mL (≈ 13.4 µM) | 4 µg/mL (≈ 13.4 µM) | 32 µg/mL (≈ 107 µM) | MIC (Pseudomonas aeruginosa [17]): 16 µg/mL (≈ 53.4 µM); MIC (Pseudomonas aeruginosa [22]): > 32 µg/mL; MIC (Pseudomonas aeruginosa [23]): 128 µg/mL (≈ 428 µM); MIC (Pseudomonas aeruginosa [24]): 16 µg/mL (≈ 53.4 µM); MIC (Pseudomonas aeruginosa [25]): 8 µg/mL (≈ 26.7 µM); MIC (Pseudomonas aeruginosa [26]): 32 µg/mL (≈ 107 µM); MIC (Pseudomonas aeruginosa [27]): 8 µg/mL (≈ 26.7 µM); MIC (Pseudomonas aeruginosa [28]): 16 µg/mL (≈ 53.4 µM); MIC (Pseudomonas aeruginosa [29]): > 32 µg/mL; MIC (Pseudomonas aeruginosa [30]): > 32 µg/mL; MIC (Pseudomonas aeruginosa [31]): 4 µg/mL (≈ 13.4 µM); MIC (Pseudomonas aeruginosa [32]): 32 µg/mL (≈ 107 µM)
C[C@@H](O)[C@H]1C(=O)N2C(C(=O)O)=C(S[C@@H]3CN[C@H](C(=O)N(C)C)C3)[C@H](C)[C@H]12 [MEROPENEM] | 4 µg/mL (≈ 10.4 µM) | 32 µg/mL (≈ 83.4 µM) | 2 µg/mL (≈ 5.22 µM) | ≤ 0.06 µg/mL | 4 µg/mL (≈ 10.4 µM) | 0.5 µg/mL (≈ 1.3 µM) | > 32 µg/mL | 32 µg/mL (≈ 83.4 µM) | 4 µg/mL (≈ 10.4 µM) | 1 µg/mL (≈ 2.61 µM) | 0.25 µg/mL (≈ 0.652 µM) | 16 µg/mL (≈ 41.7 µM) | > 32 µg/mL | 4 µg/mL (≈ 10.4 µM) | 8 µg/mL (≈ 20.9 µM) | > 32 µg/mL | 8 µg/mL (≈ 20.9 µM) | 4 µg/mL (≈ 10.4 µM) | 0.12 µg/mL (≈ 0.313 µM) | 16 µg/mL (≈ 41.7 µM) | MIC (Pseudomonas aeruginosa [17]): 32 µg/mL (≈ 83.4 µM); MIC (Pseudomonas aeruginosa [22]): 32 µg/mL (≈ 83.4 µM); MIC (Pseudomonas aeruginosa [23]): > 32 µg/mL; MIC (Pseudomonas aeruginosa [24]): 8 µg/mL (≈ 20.9 µM); MIC (Pseudomonas aeruginosa [25]): 0.5 µg/mL (≈ 1.3 µM); MIC (Pseudomonas aeruginosa [26]): 8 µg/mL (≈ 20.9 µM); MIC (Pseudomonas aeruginosa [27]): 2 µg/mL (≈ 5.22 µM); MIC (Pseudomonas aeruginosa [28]): 4 µg/mL (≈ 10.4 µM); MIC (Pseudomonas aeruginosa [29]): 16 µg/mL (≈ 41.7 µM); MIC (Pseudomonas aeruginosa [30]): 16 µg/mL (≈ 41.7 µM); MIC (Pseudomonas aeruginosa [31]): 8 µg/mL (≈ 20.9 µM); MIC (Pseudomonas aeruginosa [32]): 16 µg/mL (≈ 41.7 µM)
NC[C@H]1O[C@H](O[C@H]2[C@H](O)[C@@H](O[C@H]3O[C@H](CO)[C@@H](O)[C@H](N)[C@H]3O)[C@H](N)C[C@@H]2N)[C@H](N)C[C@@H]1O [TOBRAMYCIN] | 16 µg/mL (≈ 34.2 µM) | > 32 µg/mL | 2 µg/mL (≈ 4.28 µM) | 0.25 µg/mL (≈ 0.535 µM) | 4 µg/mL (≈ 8.56 µM) | 0.5 µg/mL (≈ 1.07 µM) | 8 µg/mL (≈ 17.1 µM) | 16 µg/mL (≈ 34.2 µM) | 8 µg/mL (≈ 17.1 µM) | 1 µg/mL (≈ 2.14 µM) | ≤ 0.12 µg/mL | 32 µg/mL (≈ 68.4 µM) | 32 µg/mL (≈ 68.4 µM) | 4 µg/mL (≈ 8.56 µM) | > 32 µg/mL | 0.5 µg/mL (≈ 1.07 µM) | 2 µg/mL (≈ 4.28 µM) | 4 µg/mL (≈ 8.56 µM) | 0.5 µg/mL (≈ 1.07 µM) | 1 µg/mL (≈ 2.14 µM) | MIC (Pseudomonas aeruginosa [17]): 0.25 µg/mL (≈ 0.535 µM); MIC (Pseudomonas aeruginosa [22]): 4 µg/mL (≈ 8.56 µM); MIC (Pseudomonas aeruginosa [23]): 0.5 µg/mL (≈ 1.07 µM); MIC (Pseudomonas aeruginosa [24]): 0.5 µg/mL (≈ 1.07 µM); MIC (Pseudomonas aeruginosa [25]): 4 µg/mL (≈ 8.56 µM); MIC (Pseudomonas aeruginosa [26]): 16 µg/mL (≈ 34.2 µM); MIC (Pseudomonas aeruginosa [27]): 2 µg/mL (≈ 4.28 µM); MIC (Pseudomonas aeruginosa [28]): 16 µg/mL (≈ 34.2 µM); MIC (Pseudomonas aeruginosa [29]): 16 µg/mL (≈ 34.2 µM); MIC (Pseudomonas aeruginosa [30]): > 32 µg/mL; MIC (Pseudomonas aeruginosa [31]): 0.25 µg/mL (≈ 0.535 µM); MIC (Pseudomonas aeruginosa [32]): 8 µg/mL (≈ 17.1 µM)
GENTAMICIN | 32 µg/mL | > 32 µg/mL | 16 µg/mL | < 0.12 µg/mL | 32 µg/mL | < 0.25 µg/mL | > 64 µg/mL | > 32 µg/mL | > 32 µg/mL |  | < 0.12 µg/mL | > 32 µg/mL | 16 µg/mL | 16 µg/mL | > 32 µg/mL | 1 µg/mL | 2 µg/mL | 32 µg/mL | 2 µg/mL | 4 µg/mL | MIC (Pseudomonas aeruginosa [22]): 16 µg/mL; MIC (Pseudomonas aeruginosa [23]): 1 µg/mL; MIC (Pseudomonas aeruginosa [24]): 2 µg/mL; MIC (Pseudomonas aeruginosa [25]): 32 µg/mL; MIC (Pseudomonas aeruginosa [26]): 32 µg/mL; MIC (Pseudomonas aeruginosa [27]): > 32 µg/mL; MIC (Pseudomonas aeruginosa [28]): > 32 µg/mL; MIC (Pseudomonas aeruginosa [29]): > 32 µg/mL; MIC (Pseudomonas aeruginosa [30]): > 32 µg/mL; MIC (Pseudomonas aeruginosa [32]): > 32 µg/mL
